According to patent US20170311605A1, “SYNERGISTIC BACILLUS THURINGIENSIS SUBSP. AIZAWAI AND FLUBENDIAMIDE MIXTURES FOR DIAMONDBACK MOTH, BEET ARMYWORM, SOYBEAN LOOPER, CORN EARWORM, AND SUGARCANE BORER CONTROL” (Valent BioSciences LLC, priority 2016, published 2017):
Read-outs that look alike come from different tables or passages of the source.

Columns and labels:
corn earworm larvae = experiment: leaf dip test, corn earworm larvae; assay type: in vivo; details: Helicoverpa zea, foliar, Bta 27 ppm, flubendiamide 0.975 ppm, mixture 27 ppm + 0.975 ppm, read-out: % Efficacy
Procedure: (§1) The following examples illustrate the synergy of Bacillus thuringiensis subsp. aizawai and flubendiamide when controlling diamondback moth, beet armyworm, soybean looper, corn earworm, and sugarcane borer. Xentari® was used as the source of Bacillus thuringiensis subsp. aizawai and Belt® was used as the source of flubendiamide. The present invention is not limited to the products or formulation types used herein. In each example below, the studies were conducted as follows.
(§2) For these tests, standardized laboratory leaf dip methods were used to inoculate plant material with treatment(s). Dry, treated leaves were placed into Petri dishes (100×25 mm) containing filter paper wetted with 500 μl of distilled H2O (“dH2O”). Each dish was then infested with between 5 and 10 larvae, dependent on species. Efficacy ratings were taken at specified intervals. Synergy ratings were calculated for each test.
(§3) % Cexp=A+B−(AB/100), where % Cexp is the expected efficacy and “in which A and B are the control levels given by the single [insecticides]. […] Adopting a conservative approach, Applicant determined synergy to be present at ratios of ≧1.15. […]

soybean looper larvae = experiment: leaf dip test, soybean looper larvae; assay type: in vivo, Chrysodeixis includens; details: foliar, Bta 27 ppm, flubendiamide 3.9 ppm, mixture 27 ppm + 3.9 ppm, read-out: % Efficacy
Procedure: as §1, §2, §3

beet armyworm larvae = experiment: leaf dip test, beet armyworm larvae; assay type: in vivo; details: Spodoptera exigua, foliar, Bta 2.7 ppm, flubendiamide 0.49 ppm, mixture 2.7 ppm + 0.49 ppm, read-out: % Efficacy
Procedure: as §1, §2, §3

cabbage looper larvae = experiment: leaf dip test, cabbage looper larvae; assay type: in vivo; details: Trichoplusia ni, foliar, Bta 2.7 ppm, flubendiamide 0.49 ppm, mixture 2.7 ppm + 0.49 ppm, read-out: % Efficacy
sugarcane borer larvae = experiment: leaf dip test, sugarcane borer larvae; assay type: in vivo; details: Diatraea saccharalis, foliar, Bta 27 ppm, flubendiamide 2.15 ppm, mixture 27 ppm + 2.15 ppm, read-out: % Efficacy
Procedure: as §1, §2, §3

[1] = test system: southwestern corn borer larvae; experiment: leaf dip test, southwestern corn borer larvae; assay type: in vivo; details: foliar, Bta 2.7 ppm, flubendiamide 0.39 ppm, mixture 2.7 ppm + 0.39 ppm, read-out: % Efficacy
diamondback moth larvae = experiment: leaf dip test, diamondback moth larvae; assay type: in vivo; details: Plutella xylostella, foliar, Bta 2.7 ppm, flubendiamide 0.215 ppm, mixture 2.7 ppm + 0.215 ppm, read-out: % Efficacy
Procedure: as §1
For these tests, standardized laboratory leaf dip methods were used to inoculate plant material with treatment(s). Dry, treated leaves were placed into Petri dishes (100×25 mm) containing filter paper wetted with 500 μl of distilled H2O (“dH2O”). […] Synergy ratings were calculated for each test. […]
as §3
In order to determine synergy, rates below normal field rate ranges must be used. If normal field rate ranges are used, all of the larvae would die (combining a lethal or near lethal dose of Bacillus thuringiensis subsp. aizawai with a lethal dose of flubendiamide would most likely lead to larvae death) in every treatment and synergy would not be able to be determined. […]

For `Cc1cc(C(F)(C(F)(F)F)C(F)(F)F)ccc1NC(=O)c1cccc(I)c1C(=O)NC(C)(C)CS(C)(=O)=O` [Flubendiamide, 3-iodo-N′-(2-mesyl-1,1-dimethylethyl)-N-{4-[1,2,2,2-tetrafluoro-1-(trifluoromethyl)ethyl]-o-tolyl}phthalamide], the Emax at 0.975 ppm (corn earworm larvae; 24 h after treatment) was 16%, the Emax at 0.975 ppm (corn earworm larvae; 48 h after treatment) was 29% and the Emax at 3.9 ppm (soybean looper larvae; 24 h after treatment) was 3%. The Emax at 3.9 ppm (soybean looper larvae; 48 h after treatment) was 20%, the Emax at 0.49 ppm (beet armyworm larvae; 24 h after treatment) was 12% and the Emax at 0.49 ppm (beet armyworm larvae; 48 h after treatment) was 26%. For the same molecule, the Emax at 0.49 ppm (cabbage looper larvae; 24 h after treatment) was 4%, the Emax at 0.49 ppm (cabbage looper larvae; 48 h after treatment) was 21% and the Emax at 2.15 ppm (sugarcane borer larvae; 24 h after treatment) was 44%. The Emax at 2.15 ppm (sugarcane borer larvae; 48 h after treatment) was 68%, the Emax at 0.39 ppm ([1]; 24 h after treatment) was 40% and the Emax at 0.39 ppm ([1]; 48 h after treatment) was 49%. For the same molecule, the Emax at 0.215 ppm (diamondback moth larvae; 24 h after treatment) was 11% and the Emax at 0.215 ppm (diamondback moth larvae; 48 h after treatment) was 25%.
